The numbers were not newly measured in patent US6645974B2, “Androgen receptor modulators and methods for use thereof” (Merck & Co., Inc., priority 2001, dated 2003), which cites them from elsewhere.

Structures can show the parent of a compound that is named as a salt.

For series [1] the following is noted: after 7 years of treatment.
The conditions of series [2]: postmenopausal osteoporotic women, median of 22 months of treatment.

With `NCCCC(O)(P(=O)(O)O)P(=O)(O)O` [alendronate, 4-amino-1-hydroxybutylidene-1,1-bisphosphonic acid monosodium salt, trihydrate], the “increase in spinal BMD” value in series [1] was not above 11%.

Turning to “hPTH(1-34): human parathyroid hormone 1-34 fragment (SVSEIQLMHNLGKHLNSMERVEWLRKKLQDVHNF; Parathyroid hormone; UniProt P01270 32-65, looked up, fragment)”, in series [2], the “reduction in nonvertebral fractures” value is listed as 54% and the “reduction in spine fractures” value is on record as not below 65%.
